What was measured:
[1] = molecular target: T1, Phosphatidylinositol 4,5-bisphosphate 3-kinase catalytic subunit delta isoform (Homo sapiens) (UniProt O00329); assay: Antagonist activity at PI3Kdelta (unknown origin) assessed as inhibition rate at 20 nM using PIP2 as substrate in presence of ATP incubated for 30 to 60 mins by ADP-glo based luminescence assay relative to control; conditions: time 30-60 min
T1 sequence (whole entry): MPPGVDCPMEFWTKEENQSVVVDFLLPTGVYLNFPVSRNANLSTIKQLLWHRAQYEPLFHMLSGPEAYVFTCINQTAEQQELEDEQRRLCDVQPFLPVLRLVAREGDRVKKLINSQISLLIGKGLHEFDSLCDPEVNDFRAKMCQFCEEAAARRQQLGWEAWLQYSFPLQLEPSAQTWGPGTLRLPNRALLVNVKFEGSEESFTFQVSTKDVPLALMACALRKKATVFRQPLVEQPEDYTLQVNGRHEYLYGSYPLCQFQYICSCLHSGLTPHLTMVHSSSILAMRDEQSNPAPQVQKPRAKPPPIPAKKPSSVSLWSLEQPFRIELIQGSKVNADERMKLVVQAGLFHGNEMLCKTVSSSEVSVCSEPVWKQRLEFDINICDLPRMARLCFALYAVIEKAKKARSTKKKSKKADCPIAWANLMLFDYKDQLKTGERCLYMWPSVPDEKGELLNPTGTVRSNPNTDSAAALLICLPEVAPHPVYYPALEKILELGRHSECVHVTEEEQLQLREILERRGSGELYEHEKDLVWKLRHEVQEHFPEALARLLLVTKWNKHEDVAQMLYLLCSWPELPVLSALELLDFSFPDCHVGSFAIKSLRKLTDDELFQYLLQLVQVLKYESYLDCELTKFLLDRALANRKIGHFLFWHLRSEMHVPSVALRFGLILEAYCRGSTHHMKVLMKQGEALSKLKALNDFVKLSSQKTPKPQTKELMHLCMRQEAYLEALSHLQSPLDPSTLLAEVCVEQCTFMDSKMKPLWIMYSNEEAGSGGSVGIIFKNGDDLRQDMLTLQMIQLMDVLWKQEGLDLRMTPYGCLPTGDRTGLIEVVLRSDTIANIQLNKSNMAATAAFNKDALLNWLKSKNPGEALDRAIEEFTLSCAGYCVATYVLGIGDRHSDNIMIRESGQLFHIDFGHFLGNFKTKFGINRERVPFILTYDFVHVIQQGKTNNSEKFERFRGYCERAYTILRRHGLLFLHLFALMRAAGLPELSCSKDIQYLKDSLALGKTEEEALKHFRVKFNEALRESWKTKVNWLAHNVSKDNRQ

[2] = molecular target: Phosphatidylinositol 4,5-bisphosphate 3-kinase catalytic subunit gamma isoform (Homo sapiens, UniProt P48736); assay: Antagonist activity at PI3Kgamma (unknown origin) assessed as inhibition rate at 20 nM using PIP2 as substrate in presence of ATP incubated for 30 to 60 mins by ADP-glo based luminescence assay relative to control; conditions: time 30-60 min
[3] = Cytotoxicity against mouse L929 cells assessed as reduction in cell viability incubated for 24 hrs by CCK-8 assay; assay type: toxicity, cell-based
Jurkat = assay: Cytotoxicity against human Jurkat cells assessed as reduction in cell viability incubated for 24 hrs by CCK-8 assay; assay type: functional, cell-based
RAW264.7 = assay: Cytotoxicity against mouse RAW264.7 cells assessed as reduction in cell viability incubated for 24 hrs by CCK-8 assay; assay type: functional, cell-based; conditions: RAW264.7, 24 h
THP-1 = assay: Cytotoxicity against human THP-1 cells assessed as reduction in cell viability incubated for 24 hrs by CCK-8 assay; assay type: functional, cell-based; conditions: THP-1, 24 h
MDA-MB-231 = assay: Cytotoxicity against human MDA-MB-231 cells assessed as reduction in cell viability incubated for 24 hrs by CCK-8 assay; assay type: functional, cell-based; conditions: MDA-MB-231, 24 h
4T1 = assay: Cytotoxicity against mouse 4T1 cells assessed as reduction in cell viability incubated for 24 hrs by CCK-8 assay; assay type: functional, cell-based; conditions: 4T1, 24 h
T47D = assay: Cytotoxicity against human T47D cells assessed as reduction in cell viability incubated for 24 hrs by CCK-8 assay; assay type: functional, cell-based
A549 = assay: Cytotoxicity against human A549 cells assessed as reduction in cell viability incubated for 24 hrs by CCK-8 assay; assay type: functional, cell-based; conditions: A549, 24 h
HepG2 = assay: Cytotoxicity against human HepG2 cells assessed as reduction in cell viability incubated for 24 hrs by CCK-8 assay; assay type: functional, cell-based; conditions: HepG2, 24 h
B16-F10 = assay: Cytotoxicity against mouse B16-F10 cells assessed as reduction in cell viability incubated for 24 hrs by CCK-8 assay; assay type: functional, cell-based; conditions: B16-F10, 24 h
MCF7 = assay: Cytotoxicity against human MCF7 cells assessed as reduction in cell viability incubated for 24 hrs by CCK-8 assay; assay type: functional, cell-based; conditions: MCF7, 24 h
Huh-7 = assay: Cytotoxicity against human Huh-7 cells assessed as reduction in cell viability incubated for 24 hrs by CCK-8 assay; assay type: functional, cell-based; conditions: Huh-7, 24 h

Phosphatidylinositol 4,5-bisphosphate 3-kinase catalytic subunit gamma isoform, sequence (P48736 whole entry, looked up, canonical isoform): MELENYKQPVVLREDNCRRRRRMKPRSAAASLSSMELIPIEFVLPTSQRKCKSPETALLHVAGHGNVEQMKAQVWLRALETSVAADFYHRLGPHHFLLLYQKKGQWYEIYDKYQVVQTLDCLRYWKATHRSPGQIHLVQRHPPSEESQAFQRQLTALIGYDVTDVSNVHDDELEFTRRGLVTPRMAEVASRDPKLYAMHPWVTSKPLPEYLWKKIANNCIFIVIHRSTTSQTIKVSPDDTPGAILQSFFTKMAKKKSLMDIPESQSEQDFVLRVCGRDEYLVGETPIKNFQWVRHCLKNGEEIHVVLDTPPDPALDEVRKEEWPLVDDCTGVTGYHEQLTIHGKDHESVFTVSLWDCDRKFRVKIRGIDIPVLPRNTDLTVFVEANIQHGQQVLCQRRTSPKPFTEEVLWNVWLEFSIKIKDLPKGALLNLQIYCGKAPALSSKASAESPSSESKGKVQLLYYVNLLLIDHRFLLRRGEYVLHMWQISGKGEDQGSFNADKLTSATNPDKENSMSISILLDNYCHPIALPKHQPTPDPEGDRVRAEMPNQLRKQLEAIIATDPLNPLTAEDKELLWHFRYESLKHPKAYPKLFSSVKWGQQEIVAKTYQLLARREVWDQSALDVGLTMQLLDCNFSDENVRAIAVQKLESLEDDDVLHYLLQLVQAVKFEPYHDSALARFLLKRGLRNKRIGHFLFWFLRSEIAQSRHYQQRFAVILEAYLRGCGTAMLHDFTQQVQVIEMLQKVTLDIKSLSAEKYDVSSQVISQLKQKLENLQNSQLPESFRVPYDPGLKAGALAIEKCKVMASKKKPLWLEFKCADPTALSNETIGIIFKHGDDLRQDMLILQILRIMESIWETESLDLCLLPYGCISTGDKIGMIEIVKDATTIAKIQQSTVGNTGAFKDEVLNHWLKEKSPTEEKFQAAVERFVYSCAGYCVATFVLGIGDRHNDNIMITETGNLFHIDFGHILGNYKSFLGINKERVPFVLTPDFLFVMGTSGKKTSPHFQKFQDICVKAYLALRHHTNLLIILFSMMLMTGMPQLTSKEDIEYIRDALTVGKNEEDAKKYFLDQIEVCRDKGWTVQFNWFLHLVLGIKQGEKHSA

inhibition [1] | inhibition [2] | Structure (SMILES) | also measured
14% | 13% | CC(NC(=O)c1cncc(N2CCOCC2)n1)c1cc2cccc(Cl)c2c(=O)n1-c1ccccc1 (stereo not drawn) | 
26% |  | COCC#Cc1cccc2cc(C(C)Nc3ncnc4[nH]cnc34)n(-c3ccccc3)c(=O)c12 (stereo not drawn) | inhibition ([2]; filed as antagonist): 41%
29% | 24% | CCCC#Cc1cccc2cc(C(C)NC(=O)c3c(N)nn4cccnc34)n(-c3ccccc3)c(=O)c12 (stereo not drawn) | 
17% | 33% | CC(NC(=O)c1c(N)nn2cccnc12)c1cc2cccc(C#CC3CC3)c2c(=O)n1-c1ccccc1 (stereo not drawn) | 
23% |  | CC(Nc1ncnc2[nH]cnc12)c1cc2cccc(C#Cc3ccccc3)c2c(=O)n1-c1ccccc1 (stereo not drawn) | inhibition ([2]; filed as antagonist): 51%
8% | 11% | CC(NC(=O)c1ccc2occc2c1)c1cc2cccc(Cl)c2c(=O)n1-c1ccccc1 (stereo not drawn) | 
28% | 22% | CC(NC(=O)c1cnn2cccnc12)c1cc2cccc(C#Cc3ccc(N(C)C)cc3)c2c(=O)n1-c1ccccc1 (stereo not drawn) | 
3% | 2% | CC(NC(=O)c1cncc2ccccc12)c1cc2cccc(Cl)c2c(=O)n1-c1ccccc1 (stereo not drawn) | 
19% | 31% | COc1ccc(C#Cc2cccc3cc(C(C)NC(=O)c4c(N)nn5cccnc45)n(-c4ccccc4)c(=O)c23)cc1 (stereo not drawn) | 
25% | 27% | CC(NC(=O)c1c(N)nn2cccnc12)c1cc2cccc(C#Cc3ccccc3)c2c(=O)n1-c1ccccc1 (stereo not drawn) | 
 |  | C[C@H](Nc1ncnc2[nH]cnc12)c1cc2cccc(Cl)c2c(=O)n1-c1ccccc1 [DUVELISIB] | IC50 at 24 h [3]: > 100 µM
8% | 13% | CCCc1ccc(C#Cc2cccc3cc(C(C)Nc4ncnc5[nH]cnc45)n(-c4ccccc4)c(=O)c23)cc1 (stereo not drawn) | 
24% | 33% | CC(NC(=O)c1ccncc1N)c1cc2cccc(Cl)c2c(=O)n1-c1ccccc1 (stereo not drawn) | 
25% | 38% | CC(NC(=O)c1c(N)nn2cccnc12)c1cc2cccc(C#CCN)c2c(=O)n1-c1ccccc1 (stereo not drawn) | 
22% | 24% | CC(NC(=O)c1cnn2cccnc12)c1cc2cccc(C#Cc3ccccc3)c2c(=O)n1-c1ccccc1 (stereo not drawn) | 
 |  | CC(Nc1ncnc2[nH]cnc12)c1cc2cccc(C#CC3CC3)c2c(=O)n1-c1ccccc1 (stereo not drawn) | inhibition ([1]; filed as antagonist): 44%; inhibition ([2]; filed as antagonist): 43%
14% |  | CC(Nc1ncnc2[nH]cnc12)c1cc2cccc(C#Cc3ccc(C(F)(F)F)cc3)c2c(=O)n1-c1ccccc1 (stereo not drawn) | inhibition ([2]; filed as antagonist): 44%
27% | 35% | COCC#Cc1cccc2cc(C(C)NC(=O)c3c(N)nn4cccnc34)n(-c3ccccc3)c(=O)c12 (stereo not drawn) | 
17% | 37% | CC(NC(=O)c1c(N)nn2cccnc12)c1cc2cccc(C#Cc3ccc(C(F)(F)F)cc3)c2c(=O)n1-c1ccccc1 (stereo not drawn) | 
 | 27% | CC(NC(=O)c1cnn2cccnc12)c1cc2cccc(C#Cc3ccc(C(F)(F)F)cc3)c2c(=O)n1-c1ccccc1 (stereo not drawn) | inhibition ([1]; filed as antagonist): 40%
27% | 22% | CCCc1ccc(C#Cc2cccc3cc(C(C)NC(=O)c4c(N)nn5cccnc45)n(-c4ccccc4)c(=O)c23)cc1 (stereo not drawn) | 
13% | 36% | CC(NC(=O)c1cnn2cccnc12)c1cc2cccc(Cl)c2c(=O)n1-c1ccccc1 (stereo not drawn) | 
18% | 28% | CC(NC(=O)c1c(N)nn2cccnc12)c1cc2cccc(C#Cc3ccc(N(C)C)cc3)c2c(=O)n1-c1ccccc1 (stereo not drawn) | 
14% |  | CC(Nc1ncnc2[nH]cnc12)c1cc2cccc(C#Cc3ccc(N(C)C)cc3)c2c(=O)n1-c1ccccc1 (stereo not drawn) | inhibition ([2]; filed as antagonist): 46%
25% | 25% | COc1ccc(C#Cc2cccc3cc(C(C)NC(=O)c4cnn5cccnc45)n(-c4ccccc4)c(=O)c23)cc1 (stereo not drawn) | 
 | 37% | C[C@H](Nc1ncnc2nc[nH]c12)c1cc2cccc(Cl)c2c(=O)n1-c1ccccc1 [DUVELISIB] | inhibition ([1]; filed as antagonist): 66.7%; IC50 (Jurkat): 3.17 µM; IC50 (RAW264.7): 13.2 µM; IC50 (THP-1): 14.9 µM; IC50 (MDA-MB-231): 9.76 µM; IC50 (4T1): 22.9 µM; IC50 (T47D): > 100 µM; IC50 (A549): > 100 µM; IC50 (HepG2): > 100 µM; IC50 (B16-F10): > 100 µM; IC50 (MCF7): > 100 µM; IC50 (Huh-7): 6.57 µM
32% | 9% | CC(NC(=O)c1cccc2c1OCCO2)c1cc2cccc(Cl)c2c(=O)n1-c1ccccc1 (stereo not drawn) | 
21% | 33% | CCCCC#Cc1cccc2cc(C(C)Nc3ncnc4[nH]cnc34)n(-c3ccccc3)c(=O)c12 (stereo not drawn) | 
28% | 35% | CC(Nc1ncnc2c1ncn2C)c1cc2cccc(Cl)c2c(=O)n1-c1ccccc1 (stereo not drawn) | 
